Assay results as given in the NIST ThermoML archive (doi:10.1016/j.fluid.2011.09.010).
Numbers after ± are expanded uncertainties.

Test: activity coefficient (dimensionless); of the first substance listed, at infinite dilution; xn = mol fraction of the nth substance listed
Details: 101.3 kPa, Liquid, Differential ebulliometry, x1 = 0

Compound | activity coefficient (353.15 K) | activity coefficient (373.15 K) | activity coefficient (393.15 K) | activity coefficient (333.15 K) | activity coefficient (348.15 K)
NC1CCCCC1 [cyclohexylamine] + CC1CCCCC1 | 1.87 ± 0.22 | 1.64 ± 0.2 | 1.48 ± 0.18 |  | 
NC1CCCCC1 [cyclohexylamine] + CCC1CCCCC1 | 1.52 ± 0.18 | 1.45 ± 0.17 | 1.36 ± 0.16 |  | 
NC1CCCCC1 [cyclohexylamine] + C1CCCCC1 |  |  |  | 1.77 ± 0.21 | 1.49 ± 0.18
C1CCCCC1 [cyclohexane] + NC1CCCCC1 |  | 1.24 ± 0.15 | 1.18 ± 0.14 |  | 

Other lines, results leading:

activity coefficient (353.15 K) | activity coefficient (373.15 K) | activity coefficient (393.15 K) | activity coefficient (333.15 K) | activity coefficient (348.15 K) | Compound
1.26 ± 0.15 | 1.25 ± 0.15 |  | 1.19 ± 0.14 |  | CC1CCCCC1 [methylcyclohexane] + NC1CCCCC1
1.57 ± 0.19 | 1.45 ± 0.17 | 1.42 ± 0.17 |  |  | CCC1CCCCC1 [ethylcyclohexane] + NC1CCCCC1
